Test results published in ChEMBL document CHEMBL1275593 (2010).
Values after ≈ are worked out from the molar mass of the structure shown.

What was measured:
Bacillus anthracis [1] = assay: microbe, parasite or virus in culture; conditions: BA104
Bacillus anthracis [2] = assay: microbe, parasite or virus in culture; conditions: BA103

O=C(O)c1cn(C2CC2)c2cc(N3CCNCC3)c(F)cc2c1=O [CIPROFLOXACIN]
MIC (Bacillus anthracis [1]): 0.064 µg/mL (≈ 0.193 µM)
MIC (Bacillus anthracis [2]): 0.064 µg/mL (≈ 0.193 µM)
